Values joined by “and” are separate entries in the source; they are usually repeats but may differ in a detail not shown here. Equal entries are not always repeated.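 96-well plates; 48 h exposure; 5 concentrations. Endpoints by linear interpolation between flanking doses. Not reached: highest tested concentration assigned. GI50: concentration for 50% inhibition of growth. Definition used: TGI = concentration required for complete inhibition of growth.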 Bounds are passed on as bounds.

Test systems include A498 renal; DMS 273 small cell lung; LOX IMVI melanoma; M19-MEL melanoma; NCI-H460 lung; UACC-62 melanoma; UO-31 renal; HT29 colon; NCI/ADR-RES ovarian; RXF 393 renal.
Holding throughout (experiment): NCI-60 cell line screen, 48 h

Consider `CC(O)C(NC(=O)c1ccccc1)C(=O)N(Cc1ccccc1)Cc1ccccc1` (centres undefined), for which the TGI in the test on A498 renal, in the test with DMS 273 small cell lung, in the test on LOX IMVI melanoma, in the test on M19-MEL melanoma, with NCI-H460 lung and in the test on UACC-62 melanoma was above 100 µM throughout. This compound also came in with a TGI with UO-31 renal above 100 µM.

Turning to `CNc1ccc([N+](=O)[O-])c2c(NCCCN(C)C)ccnc12`, the TGI in the test with DMS 273 small cell lung, in the test with HT29 colon, in the test on LOX IMVI melanoma, with M19-MEL melanoma, with NCI-H460 lung and in the test with UO-31 renal was above 100 µM throughout.

Consider `CC#CC#C/C=C1\C=CC2(OC=CC2OC(C)=O)O1` (centres undefined), for which the TGI was above 100 µM in the test on A498 renal; 49.1 µM with DMS 273 small cell lung; 34.8 µM and 55.9 µM with HT29 colon; > 100 µM and 31.7 µM with LOX IMVI melanoma; 65 µM and > 100 µM in the test with NCI-H460 lung; above 100 µM in the test on NCI/ADR-RES ovarian. The TGI was 26.1 µM in the test on RXF 393 renal; 52.3 µM and 33.2 µM in the test with UACC-62 melanoma; 30.8 µM and 36.2 µM with UO-31 renal.

`N#Cc1cc([N+](=O)[O-])ccc1NC(=O)C(=O)C(C(=O)c1ccc2ccccc2c1)C1OCc2ccccc21` (centres undefined): the TGI in the test with A498 renal amounted to 20.6 µM; in the test on HT29 colon, 32.5 µM; in the test with LOX IMVI melanoma, 29.5 µM; in the test on M19-MEL melanoma, 31.6 µM; with NCI-H460 lung it was 20.5 µM; in the test with RXF 393 renal, 12.4 µM. For the same compound, the TGI with UACC-62 melanoma came to 36.4 µM; with UO-31 renal it was 26.5 µM.

`COc1ccc(-c2nnc(SCC(=O)Nc3ccc(C(=O)/C=C/c4cc(OC)c(OC)c(OC)c4)cc3)n2-c2ccccc2)cc1OC`: the GI50 is 5 µM with A498 renal; 2.07 µM in the test with HT29 colon; 1.74 µM in the test on LOX IMVI melanoma; 8.54 µM in the test on NCI-H460 lung; above 10 µM with NCI/ADR-RES ovarian; 2.13 µM with RXF 393 renal. In addition, the GI50 in the test on UACC-62 melanoma was 6.4 µM; with UO-31 renal it was above 10 µM. Further, the TGI was above 10 µM in the test with A498 renal; above 10 µM with HT29 colon; 4.87 µM with LOX IMVI melanoma; above 10 µM with NCI-H460 lung; above 10 µM with NCI/ADR-RES ovarian; 6.85 µM with RXF 393 renal. The TGI in the test with UACC-62 melanoma and in the test on UO-31 renal was above 10 µM each time.

Turning to `Clc1ccc2nc(Cl)c3ccccc3c2c1`, the GI50 is 2.22 µM with A498 renal; 19.9 µM in the test on HT29 colon; 20.9 µM in the test on LOX IMVI melanoma; 3.29 µM with NCI-H460 lung; 17.8 µM in the test on NCI/ADR-RES ovarian; 9.15 µM in the test with RXF 393 renal. The GI50 with UACC-62 melanoma was 44.1 µM; in the test with UO-31 renal, 3.82 µM. The TGI in the test with A498 renal is 9.85 µM; in the test with HT29 colon it was above 100 µM; in the test with LOX IMVI melanoma it was above 100 µM; with NCI-H460 lung it was 11.8 µM; in the test with NCI/ADR-RES ovarian, above 100 µM; in the test with RXF 393 renal, 30.4 µM. The figures for the TGI in the test with UACC-62 melanoma and in the test with UO-31 renal were above 100 µM and 38.1 µM, respectively.

For `NC(CCc1ncc(-c2ccccc2)s1)C(=O)O` (centres undefined), the TGI in the test with A498 renal, with DMS 273 small cell lung, in the test on HT29 colon, in the test with LOX IMVI melanoma, with NCI-H460 lung and in the test with RXF 393 renal was above 100 µM in each case. The TGI in the test with UACC-62 melanoma and in the test on UO-31 renal was above 100 µM throughout.

`CC(C)=CC(=O)N[C@@H]1CC2CCC3C(CC[C@@]4(C)C3CC[C@@H]4C(C)N(C)C)[C@@]2(C)C[C@@H]1O` (some centres undefined): the GI50 in the test with A498 renal was 5.19 µM; in the test on HT29 colon, 0.496 µM; in the test on LOX IMVI melanoma it was 1.54 µM; in the test with NCI-H460 lung, 2.53 µM; in the test with NCI/ADR-RES ovarian, 7.05 µM; with RXF 393 renal, 3.12 µM. Moreover, the GI50 in the test with UACC-62 melanoma was 2.24 µM; in the test with UO-31 renal, 1.62 µM. For the same compound, the TGI with A498 renal was 28.8 µM; in the test with HT29 colon, 2.92 µM; in the test with LOX IMVI melanoma, 3.97 µM; in the test on NCI-H460 lung it was 8.88 µM; in the test on NCI/ADR-RES ovarian it was above 72.6 µM; in the test on RXF 393 renal, 12.2 µM. The TGI in the test on UACC-62 melanoma came out at 5.28 µM; with UO-31 renal it was 4.43 µM.

As for `CN(C)CC1CCCCCC(Br)C1=O` (centres undefined), the TGI in the test with A498 renal is above 100 µM; with HT29 colon, 50.3 µM; in the test with LOX IMVI melanoma, 29.8 µM; in the test with NCI-H460 lung, 49.6 µM; in the test with NCI/ADR-RES ovarian, 37.8 µM; with RXF 393 renal, 32.6 µM. Moreover, the TGI in the test with UACC-62 melanoma was 44 µM; in the test on UO-31 renal, 26.6 µM.

With `Fc1cccc(Cl)c1Cn1c(-c2c(F)cccc2Cl)nc2ccccc21`, the GI50 was 19.2 µM in the test on A498 renal; 30 µM with HT29 colon; 20.5 µM in the test with LOX IMVI melanoma; 13.1 µM in the test on NCI-H460 lung; 18.7 µM in the test with NCI/ADR-RES ovarian; 19.7 µM in the test on RXF 393 renal. Also, the values for the GI50 with UACC-62 melanoma and in the test on UO-31 renal were 12.8 µM and 12.4 µM, respectively. For the same compound, the TGI was 36.6 µM with A498 renal; above 100 µM in the test on HT29 colon; 42.2 µM with LOX IMVI melanoma; 34.1 µM with NCI-H460 lung; 54.4 µM in the test on NCI/ADR-RES ovarian; 43.6 µM in the test on RXF 393 renal. The figures for the TGI in the test with UACC-62 melanoma and with UO-31 renal were 29.8 µM and 28.4 µM, respectively.

As for `O=C(c1nn(-c2ccc(Cl)cc2)cc1O)n1nc(C(F)(F)F)cc1-c1ccccc1`, the GI50 is 5.93 µM in the test with A498 renal; 4.07 µM in the test on HT29 colon; 1.88 µM in the test on LOX IMVI melanoma; 0.767 µM with NCI-H460 lung; 2.09 µM in the test on NCI/ADR-RES ovarian; 0.687 µM in the test with RXF 393 renal. The GI50 is 2.12 µM in the test on UACC-62 melanoma and 2.9 µM with UO-31 renal. The TGI in the test with A498 renal is above 73.9 µM; in the test with HT29 colon, above 83.8 µM; in the test with LOX IMVI melanoma, above 100 µM; in the test with NCI-H460 lung, above 59.3 µM; in the test with NCI/ADR-RES ovarian, above 35.9 µM; in the test with RXF 393 renal, above 76.1 µM. For the same compound, the figures for the TGI in the test with UACC-62 melanoma and in the test on UO-31 renal were above 71.1 µM and above 100 µM, respectively.

In the case of `CCCC(=O)c1ccc(=O)n(C)c1`, the TGI in the test on DMS 273 small cell lung, in the test with HT29 colon, with LOX IMVI melanoma, with M19-MEL melanoma, in the test on NCI-H460 lung and with RXF 393 renal was above 100 µM each time. Further, the TGI in the test on UACC-62 melanoma and in the test on UO-31 renal was above 100 µM throughout.

The record behind these values is PubChem BioAssay (NCI).
